Test results taken from patent US6647980B1, “Method for administration of active substances to the olfactory region” (priority 1997, dated 2003).

Assay: Dynamic viscosity, Brookfield Digital Viscometer
Type: physicochemical
Settings: dye preparation
Description: The viscosity of the preparations were determined by means of a Brookfield Digital Viscometer, model DV-I+, version 2.0, at 25° after stabilisation for 30 min.

## brilliant blue dye
NaCMC conc. 0 (water)
  Viscosity (cP): 1 (water) cP
NaCMC conc. 0.2 (w/v), with Tween 40 and methyl paraoxybenzoate
  Viscosity (cP): 22.0 cP
NaCMC conc. 0.5 (w/v), with Tween 40 and methyl paraoxybenzoate
  Viscosity (cP): 85.2 cP
